Common to all, as to assay type: in vivo
Test [1] concerns SCID-IBD mice. Description: SCID-IBD mouse model: loss of body weight. The settings on record: for effect on the loss of body weight: either compound alone at the dosages used (ASM 60, 30, 10 mg/kg/d; Compound A 0.1, 0.05 mg/kg/d), daily oral gavage. The text has this: (§1) Female BALB/cJ and C.B.17 scid/scid mice (Fox Chase SCID®, Bomholtgaard, Denmark) are maintained in ventilated cage racks (Micro-vent type 84-II, Allentown Caging Equipment Co., Allentown, N.J., USA) under specific pathogen free conditions. The experimental procedures performed on the mice are authorized under the license number MA 1048/00 (Magistratabteilung No. 58, Amt der Wiener Landesregierung).
Briefly, CD4^+CD45RB^HI T lymphocytes are isolated from BALB/c mouse spleens by two-colour FACS-sorting through a live/dead gate and injected (2×10^5 cells/mouse, i.p.) into 6-9 week old female SCID mice. Negative control mice receive PBS i.p. and one such mouse is in each cage as a sentinel to monitor possible infections in this immunodeficient colony (PBS-mice).
SCID mice are first reconstituted with the CD4^+CD45RB^HI T cells and then treated with test compounds or vehicle as controls. As test compounds Compound A (RAD) and pimecrolimus (ASM) are used. 3 separate studies using different dosaging are carried out. In each study both compounds are administered alone and combined. […]
The body weight of each mouse is monitored throughout and at the end of the study mice are weighed.
All data presented as mean values are qualified by an s.e.m. value. The body weight data are analysed either by repeated measures analysis or by first finding the mean AUC and then applying an ANOVA multiple comparison test with Tukey post hoc correction. […] All other data are first analysed for normal distribution and then the ANOVA test for multiple comparison is applied. […]
The first visible symptom resulting from the transfer of disease causing CD4^+CD45RB^HI T cells to SCID mice is a severe loss of body weight, usually significant 21 days after transfer. […] In the 3 individual studies described herein, the mean % difference in body weight between the non-transferred and the vehicle-treated mice is calculated to be 16.3±1.8%.

Test [2] concerns SCID-IBD mice. Description: SCID-IBD mouse model: colon inflammation, histological severity score. The following applies: for effect on colon inflammation (severity scores): low dose study: ASM 10 mg/kg/d, Compound A 0.05 mg/kg/d, alone or combined. As to the method:
(§2) SCID mice are first reconstituted with the CD4^+CD45RB^HI T cells and then treated with test compounds or vehicle as controls. As test compounds Compound A (RAD) and pimecrolimus (ASM) are used. 3 separate studies using different dosaging are carried out. In each study both compounds are administered alone and combined. All 3 studies follow the same basic protocol of 4 groups of mice with one group receiving, by daily oral gavage, both vehicles (placebo), one group Compound A alone, one group ASM alone, and one group a combination of Compound A and pimecrolimus, from day 1 to day 29 after cell transfer.
A photographic picture is taken of the opened abdominal cavity and then a 1 cm long piece of the colon, just above the rectum, is fixed in formalin for histology.
(§3) Specimens are embedded in paraffin, sections (3 μm thick) are cut and stained with H & E. Four colour FACS analysis is performed on cell suspensions prepared from the blood, spleen and mesenteric lymph nodes (MLNS) of each mouse.
All data presented as mean values are qualified by an s.e.m. value. The body weight data are analysed either by repeated measures analysis or by first finding the mean AUC and then applying an ANOVA multiple comparison test with Tukey post hoc correction. Histology scores are represented as the mean severity score and compared with a Wilcoxon-Mann-Whitney test with exact p-values (StatXact-5 software) and Bonferroni post hoc correction factor. All other data are first analysed for normal distribution and then the ANOVA test for multiple comparison is applied. Statistical significance is taken as p<0.05.
The inflammation in the colon of SCID-IBD mice shares many features observed in lesional tissue of a Crohn's diseased colon. In order to examine the intestinal mucosal damage in SCID-IBD mice a histological examination of the colon sections was performed according to defined morphological parameters. The severe colitis associated with this model of IBD is characterized with a massive cellular infiltrate which in places involves nearly all of the submucosa. The infiltrate is mixed and comprised of lymphocytes, macrophages, neutrophils and some eosinophils. Also evident is the loss of crypt architecture, extensive elongation and epithelial hyperplasia. A severely inflamed colon section will also have crypt abscesses. Numeric scores were given as per the following scheme: a score of 0 to 3 is given for the leucocyte infiltrate where 1 is mild, 2 is moderate and 3 is a severe infiltrate including the submucosal layer. A score of 0 to 2 is given for Goblet cell depletion where 2 is given for a complete lack of the alcian blue staining, 0 is given for a normal amount of staining and 1 is intermediate. […] The maximum possible score is 8 and (PBS)-mice are scored 0. […]

Test [3] relates to SCID-IBD mice. Description: SCID-IBD mouse model: serum haptoglobin levels. The settings on record: for reduction of serum haptoglobin levels: ASM at 60 and 30 mg/kg/d, Compound A at 0.1 or 0.05 mg/kg/d, alone; for % reduction of serum haptoglobin: low dose study: ASM 10 mg/kg/d, Compound A 0.05 mg/kg/d, alone or combined. The procedure:
as §2
The mice are anaesthetized at the end of the study and blood withdrawn via cardiac puncture for separation into serum which is frozen and stored at −80°.
(§4) The mean of these values for a group of mice can thus be calculated. To process some of the data further, the determined values are adjusted by subtracting the background value found in non-transferred mice and calculating the % reduction, or indeed increase, in mean cell number, relative to the placebo treated group.
(§5) The increasing T cell population with time also results in an increase in size of lymphoid organs which are otherwise comparatively small in the non-transferred SCID mouse. By day 28 post T cell transfer the inflammation is relatively consistent within a group of mice and this has been adopted as the shortest time where accurate effects of treatment with test compounds can be measured. The effects of a range of doses of Compound A and ASM as single preventative compounds are, in brief, comparative effective dose ranges are found to be from 30 to 100 mg/kg/d administration of ASM and 0.1 to 1 mg/kg/d of Compound A. In the present tests sub-maximal doses of each compounds are used and the effect of the single and combined treatment in the same study is determined.

Test [4] deals with SCID-IBD mice. Description: SCID-IBD mouse model: lymphocyte numbers (CD3+CD4+) by FACS in blood, spleen and MLN. The settings on record: for lymphocyte numbers in single treatment groups: study 2: ASM 30 mg/kg/d or Compound A 0.1 mg/kg/d administered alone. The procedure:
as §2
Blood is also taken into 10 mM EDTA for preparation for FACS analysis.
The spleen and MLN are taken from each mouse, weighed and processed for FACS analysis of single cell suspensions.
as §3
Antibodies are obtained from Pharmingen. Cells which are double positive for CD3 and CD4 are counted as lymphocytes. Cells positive for Ly-6G (myeloid differentiation antigen) and negative for CD3 or CD4 are neutrophils (also their cellular characteristics (forward and side scatter) distinguishes them from the other cells).
The number of cells per sample is calculated from the total cell number in each cell suspension and the % of positively identified (samples analysed on a FACS Calibur® using CellQuest Pro® software) cells per sample.
as §4

Test [5] deals with SCID-IBD mice. The test is described as follows: SCID-IBD mouse model: overall disease inhibition / effective dose. The settings on record: single treatment groups: ASM 60, 30, 10 mg/kg/d; Compound A 0.1, 0.05 mg/kg/d.
From the text: as §1
Briefly, CD4^+CD45RB^HI T lymphocytes are isolated from BALB/c mouse spleens by two-colour FACS-sorting through a live/dead gate and injected (2×10^5 cells/mouse, i.p.) into 6-9 week old female SCID mice. […]
as §5

Structures are written as SMILES.

Take `CC[C@@H]1/C=C(\C)C[C@H](C)C[C@H](OC)[C@H]2O[C@@](O)(C(=O)C(=O)N3CCCC[C@H]3C(=O)O[C@H](/C(C)=C/[C@@H]3CC[C@H](Cl)[C@H](OC)C3)[C@H](C)[C@@H](O)CC1=O)[C@H](C)C[C@@H]2OC` [ASM, {[1E-(1R,3R,4S)]1R,9S,12S,13R,14S,17R,18E,21S,23S,24R,25S,27R}-12-[2-(4-chloro-3-methoxycyclohexyl)-1-methylvinyl]-17-ethyl-1,14-dihydroxy-23,25-dimethoxy-13,19,21,27-tetramethyl-1,28,dioxa-4-azatricyclo [22.3.1.0(4,9)]octacos-18-ene-2,3,10,16-tetraone]: the “inhibition of weight loss” value in test [1] (ASM alone 60 mg/kg/d, daily oral gavage day 1 to 29) is “significant, but low inhibition of weight loss”. In addition, in test [1], the “effect on the loss of body weight” value is on record as “only minor effects”. For the same molecule, in test [2] (ASM981 60 mg/kg/d alone), the “effect on colon inflammation (histology severity score)” value is reported as “significant effect”. In addition, in test [2], the “effect on colon inflammation (severity scores)” value is given as “very little effect”. Moreover, in test [3], the “reduction of serum haptoglobin levels” value is on record as “potently reduces” and the “% reduction of serum haptoglobin” value is 32.7%. In addition, in test [4] (study 1: ASM 60 mg/kg/d, alone or combined with Compound A 0.1 mg/kg/d), the “reduction in lymphocyte numbers in MLN” value is listed as 73.5%. Also, in test [4], the “lymphocyte numbers in single treatment groups” value is “not reduced”. The “disease inhibition, single treatment” value in test [5] is “significant effects”.

Regarding `CO[C@H]1C[C@@H]2CC[C@@H](C)[C@@](O)(O2)C(=O)C(=O)N2CCCC[C@H]2C(=O)O[C@H]([C@H](C)C[C@@H]2CC[C@@H](OCCO)[C@H](OC)C2)CC(=O)[C@H](C)/C=C(\C)[C@@H](O)[C@@H](OC)C(=O)[C@H](C)C[C@H](C)/C=C/C=C/C=C/1C` [Compound A, 40-O-(2-hydroxyethyl)-rapamycin], in test [1], the “effect on the loss of body weight” value was “only minor effects”. Also, the “activity on colon inflammation” value in test [2] (Compound A alone at doses below 0.5 mg/kg/d) is reported as “not significantly active”. Further, the “effect on colon inflammation (severity scores)” value in test [2] is “very little effect”. Also, in test [3], the “reduction of serum haptoglobin levels” value is “very weakly active” and the “% reduction of serum haptoglobin” value is given as 27.4%. Also, the “effects on lymphocyte numbers” value in test [4] (Compound A 0.1 mg/kg/d alone) is recorded as “only weal, if any effects”. Moreover, in test [4], the “lymphocyte numbers in single treatment groups” value is listed as “not reduced”.

For the origin of these results see US20060154952A1, “Pharmaceutical compositions comprising a combination of rapamycin or its derivative and pimecrolimus for the treatment of inflammation-and ummunologically-mediated diseases” (priority 2003, published 2006).
